Reference: patent US20230372356A1, “CLOMIPRAMINE FOR THE TREATMENT OF ALZHEIMER'S DISEASE” (National Institute of Immunology, priority 2022, published 2023)

Columns and labels:
TgAD cortex = experiment: Western blot of cortex region of brain of clomipramine-treated TgAD mice; assay type: in vivo, mouse
Experimental: The animals used in the above-mentioned behavioral tests were euthanized and cortex region of brain was dissected out for biochemical analysis. The levels of Itch, TAp73, PCNA and cleaved caspase-3 were determined with Western blotting (FIG. 9A). FIGS. 9B-9F show the quantification of the levels of Itch, TAp73, PCNA and cleaved caspase-3 of the Western blot of FIG. 9A. After analysis of six animals from each group, it was observed that TAp73 protein levels, which were reduced in TgAD cortex, were much higher in clomipramine treated TgAD brains. […] Importantly, CRNA which is exacerbated in TgAD cortex was reversed in clomipramine-treated mice as indicated by decrease in PCNA and cleaved caspase 3 (FIG. 9A).

[1] = Tolerability of chronic clomipramine treatment in WT/TgAD mice; assay type: in vivo, mouse
Experimental: (§1) Next, the effect of clomipramine was tested in an in vivo mouse model of AD. For this, Amyloid Precursor Protein (APP)/Presenillin 1 (PS1) transgenic (TgAD) mouse model for AD (strain name B6C3-Tg APPswe, PSEN1dE9 85Dboa; stock number 004462) was used. Wild type and transgenic (TgAD) mice were genotyped using genomic DNA isolated from mouse tail and PCR primers according to the Jackson laboratory protocol. Clomipramine hydrochloride, obtained from Sigma (C-7291), was dissolved in ultrapure MQ just before the injection and 100 μl of this solution was injected intraperitonially (I.P.injections) to each mouse of 23-25 g in weight (25 mg/kg body weight) for 45 days. Various behaviour tests (Morris water maze, Y-maze and Radial arm maze) were performed on clomipramine/saline injected mice.
Radial arm maze test was also performed to assess the long term as well as short term memory of mice (Penley, Gaudet et al. 2013, Fredriksson, Sreedharan et al. 2019). For this purpose, the 24 h food deprived mice were placed on the central platform of 8-arm maze and allowed to explore the maze for food (bait) placed at the end of each arm as depicted in FIG. 8A. Each training/testing session was 10 min long. […] TgAD mice group committed more reference and working memory errors than WT.

[2] = tested on: APP/PS1 transgenic (TgAD) mouse model for AD; experiment: Y-maze test in TgAD mice; assay type: in vivo
Experimental: as §1
For Y-Maze test, animals were habituated in the Y-shaped maze for 3 min with one of the arms blocked then their spontaneous alternations were recorded with all arms open for 5 min (Miedel, Patton et al. 2017). The number of alternations was recorded manually and percent spontaneous alternations were calculated as mentioned below: […]
Y-maze test is an initial test of memory function. […] The memory function was tested when the animal was returned to the maze with all arms open and the tendency to spend time in the new or familiar arms was monitored.

TAp73 = experiment: Immunoprecipitation of TAp73 and ubiquitination blot in presence of proteasome inhibitor MG132; assay type: cell-based, rat; settings: TAp73 immunoprecipitated in presence of MG132 (FIG. 2B)
[3] = tested on: APP/PS1 transgenic (TgAD) mouse model for AD; experiment: Radial arm (8-arm) maze test in TgAD mice; assay type: in vivo
Experimental: as §1, with “Various behaviour tests (Morris water maze, Y-maze and Radial arm maze) were performed on clomipramine/saline injected mice.” left out
For radial arm (8-arm) maze test, mice were given restricted amount of food until their bodyweight reduced to 85% of the initial weight for two days prior to habituation in the maze. […] On the test day, all arms were opened and same five arms were baited as in trial sessions and their series of entries were recorded manually (Miyakawa, Yamada et al. 2001), from which the percentage of working and reference memory errors were calculated. The mouse entering an arm containing food where it had previously entered, was counted as working memory error (short term memory) and if the mouse entered in an arm without bait, was counted as reference memory error (long term memory for position of the baited arms). […]

[4] = tested on: Aβ42-treated cortical neurons; experiment: Western blot of lysates of Aβ42-treated rat cortical neurons treated with clomipramine; assay type: cell-based; settings: for cell cycle related neuronal apoptosis by immunoblotting (PCNA, cleaved caspase-3): 48 h (FIGS. 3D-3F)
Text: The effect of clomipramine on cell cycle related neuronal apoptosis (CRNA) was investigated in Aβ42-treated cortical neurons (Aβ42 peptide induces neurodegeneration in AD patients). The TAp73 levels were restored upon clomipramine treatment (FIG. 1A). […] FIGS. 1B, 1C, and 1D show the quantification of TAp73, PCNA, and cleaved caspase-3 levels of the Western blot of FIG. 1A.
To determine an effective concentration of clomipramine, Aβ42 treated rat cortical neurons were subjected to different concentrations (10 nM to 100 nM) of clomipramine for 48 h. Lysates were prepared and immunoblotting was performed.
After 48 h, one set of cells were lysed, lysates were prepared and the lysates were subjected to immunoblotting.

[5] = tested on: APP/PS1 transgenic (TgAD) mouse model for AD; experiment: Morris water maze test in TgAD mice; assay type: in vivo; settings: 25 mg/kg I.P. for 45 days
Experimental: as §1
For Morris water maze test, animals were subjected to three trials per session and one session a day, for five days. Each trial was for 60 s in which mice had to reach the hidden platform in the water, and the average time per session was recorded as escape latency. After the escape training, the platform was removed for the probe trial test. It tested the retention of spatial memory at 24 h after training (Vorhees and Williams 2006, Nunez 2008). The number of times a mouse crossed the probe, the time spent in the target quadrant, and swim speed were recorded using ANY-maze software (Stoelting Co., USA).
For in vivo studies, ˜6 months old WT/TgAD mice were intraperitonially injected with 25 mg/kg body weight of clomipramine for 45 days (FIG. 4A) and subjected to various behavior tests. […] After five days of training, probe trial was performed and observed that WT mice spent […] time searching for the platform in the area of previous location (target quadrant) than the TgAD reflected by FIG. 5B. […] These observations indicate improved spatial learning in TgAD mice upon clomipramine treatment.

[6] = tested on: Aβ42 treated cortical neurons; experiment: BrdU incorporation / TUNEL labelling of Aβ42-treated cortical neurons; assay type: cell-based, rat
Experimental: Subsequently, BrdU incorporation and TUNEL labelling was performed to detect DNA replication and apoptosis, respectively. […] These findings indicate that clomipramine inhibits CRNA in AD neurons by preventing TAp73 degradation.
To another set of cells, BrdU was added after 48 h to label the neurons undergoing the replication (cell cycle re-entry). After that TUNEL assay was performed to label the cells undergoing apoptosis (FIG. 3G). The number of double positive cells were scored and plotted in the graph (FIG. 3H).

[7] = tested on: AD transgenic mouse model (Tg) cortical neurons; experiment: Western blot of cortical neuron lysate from AD transgenic mouse model (Tg) treated with clomipramine; assay type: cell-based; settings: Western blot (FIG. 2A)
Text: The effect of clomipramine on cell cycle related neuronal apoptosis (CRNA) was also explored in AD transgenic mouse model (Tg) cortical neurons (in this mouse model, there is an increased production of Aβ42 which induces neurodegeneration similar to AD patients).

[8] = TgAD mice, 25 mg/kg I.P. 45 days (FIG. 9A)
[9] = 4 groups of mice treated with clomipramine and saline, 25 mg/kg I.P. 45 days

CN(C)CCCN1c2ccccc2CCc2ccc(Cl)cc21 [clomipramine]
TAp73 protein levels in cortex (TgAD cortex; TgAD brains, 25 mg/kg I.P. 45 days, six animals per group (FIGS. 9A, 9B)): much higher
PCNA in cortex (CRNA) (TgAD cortex; [8]): decrease
cleaved caspase 3 in cortex (CRNA) (TgAD cortex; [8]): decrease
food intake [1, 9]: No significant differences
water intake [1, 9]: No significant differences
side effects of chronic treatment ([1]; mice, 25 mg/kg I.P. for 45 days): no major side effects
swimming speed ([1]; wild-type mice, clomipramine vs saline (FIG. 6A), p>0.05): almost unchanged
body weight ([1]; wild-type mice, clomipramine vs saline (FIG. 6B), p>0.05): almost unchanged
learning and memory abilities ([1]; wild-type mice, clomipramine vs saline, p>0.05): almost unchanged
Y-maze spontaneous alternation ([2]; TgAD mice, 25 mg/kg I.P. for 45 days, compared to TgAD): improvement of spontaneous alternation
Y-maze total number of arm entries ([2]; all groups, 25 mg/kg I.P. for 45 days (FIG. 7C)): no significant changes
ubiquitination of TAp73 (TAp73): less ubiquitination of TAp73
Radial arm maze reference memory errors (long term memory) ([3]; 25 mg/kg I.P. for 45 days (FIG. 8B)): significant improvement
Radial arm maze working memory errors (short term memory) ([3]; 25 mg/kg I.P. for 45 days (FIG. 8C)): significant improvement
cell cycle related neuronal apoptosis by immunoblotting (PCNA, cleaved caspase-3) ([4]; 75 nM clomipramine): effective in reducing cell cycle related neuronalapoptosis
TAp73 levels ([4]; 75 nM clomipramine, 48 h, tested 10 nM to 100 nM (FIG. 3C)): restoration in TAp73 levels was observed
cell cycle related neuronal apoptosis by immunoblotting (PCNA, cleaved caspase-3) ([4]; 100 nM clomipramine): more apoptosis was observed
TAp73 levels ([4]; 100 nM clomipramine, 48 h, tested 10 nM to 100 nM (FIG. 3C)): restoration in TAp73 levels was observed
TAp73 levels ([4]; Aβ42-treated cortical neurons, Western blot (FIG. 1A, 1B)): restored
PCNA (cell cycle re-entry) ([4]; Aβ42-treated cortical neurons, Western blot (FIG. 1A, 1C)): significant decrease
cleaved caspase 3 (apoptosis) ([4]; Aβ42-treated cortical neurons, Western blot (FIG. 1A, 1D)): significant decrease
Morris water maze: time to reach the hidden platform (escape latency) ([5]; five days of training (FIG. 4B)): marked improvement
Morris water maze: escape latency on the last day of training ([5]; last day (FIGS. 4B, 4C, 5A)): almost similar to the WT mice
Morris water maze probe trial: crossing of target quadrant area ([5]; platform removed (FIG. 5B)): more frequently, almost similar to WT mice
BrdU/TUNEL double positive cells (CRNA) ([6]; 75 nM compared with 100 nM clomipramine, 48 h (FIGS. 3G, 3H)): more potent in preventing CRNA
BrdU+/TUNEL+ cells (CRNA) ([6]; Aβ42 treated cortical neurons (FIGS. 3A, 3B)): significant reduction
PCNA (cell cycle re-entry) [7]: significant decrease
TAp73 levels [7]: restored
cleaved caspase 3 (apoptosis) [7]: significant decrease
